# According to patent US9346810B2, “Pyrrolopyrimidine compounds and uses thereof” (HUTCHISON MEDIPHARMA LIMITED, priority 2010, dated 2016):
# pIC50: −log10 of the molar value. Where two headings read alike, the source gives them in different places.
# Experiments:
# Type in all cases: biochemical
# [1] = target: Recombinant human JAK1 catalytic domain (Homo sapiens (Human), UniProt P23458); assay: JAK1 kinase assay (Z'-LYTE, Tyr 6 Peptide)
# Experimental: (§1) JAK1/2/3 kinase assay are performed in vitro using Kit-Tyr 6 Peptide (Invitrogen, Cat. No. PV4122). TYK2 kinase assay are performed in vitro using Z′-LYTE™ Kinase Assay Kit-Tyr 3 Peptide (Invitrogen, Cat. No. PV3192). […] All compounds are initially tested at 8 different concentrations (1 μM down to 0.0003 μM) using a 1:3 serial dilution scheme.
# [2] = target: Recombinant human JAK2 catalytic domain (Homo sapiens (Human), UniProt O60674); assay: JAK2 kinase assay (Z'-LYTE, Tyr 6 Peptide)
# Chain of Recombinant human JAK2 catalytic domain (O60674 849-1124): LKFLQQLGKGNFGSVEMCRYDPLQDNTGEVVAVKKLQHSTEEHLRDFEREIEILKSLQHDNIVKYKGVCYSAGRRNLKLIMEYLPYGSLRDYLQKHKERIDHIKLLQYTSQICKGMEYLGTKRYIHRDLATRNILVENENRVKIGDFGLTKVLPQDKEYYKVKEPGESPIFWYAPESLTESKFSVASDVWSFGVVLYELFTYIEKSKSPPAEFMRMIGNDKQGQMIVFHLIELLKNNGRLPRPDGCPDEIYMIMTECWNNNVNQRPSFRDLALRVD
# Experimental: as §1
# [3] = target: Recombinant human JAK3 catalytic domain (Homo sapiens (Human), UniProt P52333); assay: JAK3 kinase assay (Z'-LYTE, Tyr 6 Peptide)
# Chain of Recombinant human JAK3 catalytic domain (P52333 822-1111): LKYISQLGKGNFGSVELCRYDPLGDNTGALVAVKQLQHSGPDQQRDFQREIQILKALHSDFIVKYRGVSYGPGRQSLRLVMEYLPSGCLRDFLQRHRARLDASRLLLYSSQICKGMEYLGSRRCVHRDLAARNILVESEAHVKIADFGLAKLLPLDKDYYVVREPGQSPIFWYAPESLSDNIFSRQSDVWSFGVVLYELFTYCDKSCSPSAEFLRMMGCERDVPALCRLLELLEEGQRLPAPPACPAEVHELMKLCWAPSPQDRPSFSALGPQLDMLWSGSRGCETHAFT
# Experimental: as §1
# [4] = read-out: IC50 in JAK1 kinase assay
# [5] = read-out: IC50 in JAK2 kinase assay
# [6] = read-out: IC50 in JAK3 kinase assay
# Chain of Recombinant human JAK1 catalytic domain (P23458 875-1153): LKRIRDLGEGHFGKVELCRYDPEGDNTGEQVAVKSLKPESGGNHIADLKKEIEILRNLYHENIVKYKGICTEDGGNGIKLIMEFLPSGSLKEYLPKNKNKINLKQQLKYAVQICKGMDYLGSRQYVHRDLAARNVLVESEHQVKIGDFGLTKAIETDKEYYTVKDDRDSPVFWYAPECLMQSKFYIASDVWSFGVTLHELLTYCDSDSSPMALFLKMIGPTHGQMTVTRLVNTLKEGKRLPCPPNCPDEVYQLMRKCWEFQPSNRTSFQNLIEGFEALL
SMILES,"pIC50 [1, 4]","pIC50 [2, 5]",other results
"CN(C(=O)Nc1cccc(C#N)c1)[C@@H]1CCN(c2ncnc3[nH]ccc23)C1 [Compound 16, (R)-1-(1-(7H-pyrrolo[2,3-d]pyrimidin-4-yl)pyrrolidin-3-yl)-3-(3-cyanophenyl)-1-methylurea]",7.00 to 9.00,6.00 to 7.00,–
CN(C(=O)Nc1ccc(Cl)cc1)[C@@H]1CCN(c2ncnc3[nH]ccc23)C1 [Compound 33],7.00 to 9.00,–,–
COc1nc(N(C)[C@@H]2CCN(c3ncnc4[nH]ccc34)C2)ccc1C#N [Compound 42],7.00 to 9.00,7.00 to 9.00,"pIC50 [3, 6]: 7.00 to 9.00"
CN(c1cc(F)c(C#N)c(F)c1)[C@@H]1CCN(c2ncnc3[nH]ccc23)C1 [Compound 106],7.00 to 9.00,–,–
"CN(c1cccc(C#N)c1)[C@@H]1CCN(c2ncnc3[nH]ccc23)C1 [Compound 119, (R)-3-((1-(7H-pyrrolo[2,3-d]pyrimidin-4-yl)pyrrolidin-3-yl)(methyl)amino)benzonitrile]",7.00 to 9.00,–,–
CN(c1ccc(S(=O)(=O)C(F)(F)F)cc1)[C@@H]1CCN(c2ncnc3[nH]ccc23)C1 [Compound 122],7.00 to 9.00,7.00 to 9.00,–
N#Cc1ccc(N(CC2CC2)[C@@H]2CCN(c3ncnc4[nH]ccc34)C2)nc1 [Compound 124],7.00 to 9.00,7.00 to 9.00,–
"CN(c1cc2cn[nH]c2cn1)[C@@H]1CCN(c2ncnc3[nH]ccc23)C1 [Compound 125, (R)—N-(1-(7H-pyrrolo[2,3-d]pyrimidin-4-yl)pyrrolidin-3-yl)-N-methyl-1H-pyrazolo[3,4-c]pyridin-5-amine]",7.00 to 9.00,7.00 to 9.00,–
C#CCN(c1cnc(C#N)cn1)[C@@H]1CCN(c2ncnc3[nH]ccc23)C1 [Compound 127],7.00 to 9.00,–,–
C#CCN(c1ccc(C#N)cn1)[C@@H]1CCN(c2ncnc3[nH]ccc23)C1 [Compound 128],7.00 to 9.00,7.00 to 9.00,–
"CN(c1ccc(-c2ccncc2)cn1)[C@@H]1CCN(c2ncnc3[nH]ccc23)C1 [Compound 144, (R)—N-(1-(7H-pyrrolo[2,3-d]pyrimidin-4-yl)pyrrolidin-3-yl)-N-methyl-3,4′-bipyridin-6-amine]",7.00 to 9.00,–,–
"CN(c1ccncn1)[C@@H]1CCN(c2ncnc3[nH]ccc23)C1 [Compound 154, (R)—N-(1-(7H-pyrrolo[2,3-d]pyrimidin-4-yl)pyrrolidin-3-yl)-N-methylpyrimidin-4-amine]",7.00 to 9.00,6.00 to 7.00,–
Cc1nc(N(C)[C@@H]2CCN(c3ncnc4[nH]ccc34)C2)ccc1C#N [Compound 155],7.00 to 9.00,7.00 to 9.00,–
CN(c1ccc(-c2nn[nH]n2)cc1F)[C@@H]1CCN(c2ncnc3[nH]ccc23)C1 [Compound 161],7.00 to 9.00,7.00 to 9.00,–
"C#Cc1ccc(N(C)[C@@H]2CCN(c3ncnc4[nH]ccc34)C2)nc1 [Compound 162, (R)—N-(1-(7H-pyrrolo[2,3-d]pyrimidin-4-yl)pyrrolidin-3-yl)-5-ethynyl-N-methylpyridin-2-amine]",–,7.00 to 9.00,"pIC50 [3, 6]: 7.00 to 9.00"
"CN(c1ccc2nc[nH]c2n1)[C@@H]1CCN(c2ncnc3[nH]ccc23)C1 [Compound 163, (R)—N-(1-(7H-pyrrolo[2,3-d]pyrimidin-4-yl)pyrrolidin-3-yl)-N-methyl-3H-imidazo[4,5-b]pyridin-5-amine]",–,7.00 to 9.00,"pIC50 [3, 6]: 6.00 to 7.00"

SMILES,"pIC50 [1, 4]","pIC50 [2, 5]",other results
"CN(c1ccc2[nH]c(=O)[nH]c2n1)[C@@H]1CCN(c2ncnc3[nH]ccc23)C1 [Compound 164, (R)-5-((1-(7H-pyrrolo[2,3-d]pyrimidin-4-yl)pyrrolidin-3-yl)(methyl)amino)-1H-Imidazo[4,5-b]pyridin-2(3H)-one]",–,7.00 to 9.00,"pIC50 [3, 6]: 6.00 to 7.00"
"COC(=O)c1ccc(N(C)[C@@H]2CCN(c3ncnc4[nH]ccc34)C2)nc1 [Compound 168, (R)-methyl 6-((1-(7H-pyrrolo[2,3-d]pyrimidin-4-yl)pyrrolidin-3-yl)(methyl)amino)nicotinate]",–,7.00 to 9.00,"pIC50 [3, 6]: 6.00 to 7.00"
"CN(c1ccc(C(=O)NC2CC2)cn1)[C@@H]1CCN(c2ncnc3[nH]ccc23)C1 [Compound 171, (R)-6-((1-(7H-pyrrolo[2,3-d]pyrimidin-4-yl)pyrrolidin-3-yl)(methyl)amino)-N-cyclopropylnicotinamide]",–,7.00 to 9.00,"pIC50 [3, 6]: 6.00 to 7.00"
CN(c1ccc(C(=O)Nc2nccs2)cn1)[C@@H]1CCN(c2ncnc3[nH]ccc23)C1 [Compound 199],–,–,"pIC50 ([1]; read-out: JAK1 (enzyme, IC50)): 7.85; pIC50 ([3]; read-out: JAK3 (enzyme, IC50)): 6.28"
COC[C@H](NC(=O)c1ccc(N(C)[C@@H]2CCN(c3ncnc4[nH]ccc34)C2)nc1)c1ccccc1 [Compound 209],–,7.00 to 9.00,"pIC50 [3, 6]: 7.00 to 9.00"
"CCS(=O)(=O)Nc1ccc(N(C)[C@@H]2CCN(c3ncnc4[nH]ccc34)C2)nc1 [Compound 210, (R)—N-(6-((1-(7H-pyrrolo[2,3-d]pyrimidin-4-yl)pyrrolidin-3-yl)(methyl)amino)pyridin-3-yl)ethanesulfonamide]",–,–,pIC50 [2]: 7.00 to 9.00; pIC50 [3]: 6.00 to 7.00
CN(c1ccc(NS(C)(=O)=O)cn1)[C@@H]1CCN(c2ncnc3[nH]ccc23)C1 [Compound 217],7.00 to 9.00,6.00 to 7.00,–
CC(C)S(=O)(=O)Nc1ccc(N(C)[C@@H]2CCN(c3ncnc4[nH]ccc34)C2)nc1 [Compound 218],7.00 to 9.00,6.00 to 7.00,–
CN(c1ccc(NS(=O)(=O)Cc2ccccc2F)cn1)[C@@H]1CCN(c2ncnc3[nH]ccc23)C1 [Compound 219],7.00 to 9.00,–,–
CNS(=O)(=O)c1ccc(N(C)[C@@H]2CCN(c3ncnc4[nH]ccc34)C2)nc1 [Compound 239],7.00 to 9.00,6.00 to 7.00,–
CN(c1ccc(S(=O)(=O)NC[C@H]2CCCO2)cn1)[C@@H]1CCN(c2ncnc3[nH]ccc23)C1 [Compound 241],7.00 to 9.00,7.00 to 9.00,–
CN(c1ccc(S(=O)(=O)NCCO)cn1)[C@@H]1CCN(c2ncnc3[nH]ccc23)C1 [Compound 243],7.00 to 9.00,6.00 to 7.00,–
CN(c1ccc(S(=O)(=O)N2CCCC2)cn1)[C@@H]1CCN(c2ncnc3[nH]ccc23)C1 [Compound 247],7.00 to 9.00,–,–
CN(c1ccc(S(=O)(=O)N2CCNCC2)cn1)[C@@H]1CCN(c2ncnc3[nH]ccc23)C1 [Compound 251],7.00 to 9.00,–,–
CN(c1ccc(S(=O)(=O)Nc2ccc(F)cc2)cn1)[C@@H]1CCN(c2ncnc3[nH]ccc23)C1 [Compound 253],7.00 to 9.00,–,–
CN(c1ccc(S(=O)(=O)NCc2ccc(F)cc2)cn1)[C@@H]1CCN(c2ncnc3[nH]ccc23)C1 [Compound 254],7.00 to 9.00,–,–

# Continued, in another order:
"pIC50 [1, 4]","pIC50 [2, 5]",SMILES,other results
7.00 to 9.00,–,CN(C(=O)CCc1c(Cl)cccc1Cl)[C@@H]1CCN(c2ncnc3[nH]ccc23)C1 [Compound 21],–
7.00 to 9.00,6.00 to 7.00,CN(C(=O)Nc1ccc(C(F)(F)F)cc1)[C@@H]1CCN(c2ncnc3[nH]ccc23)C1 [Compound 30],–
7.00 to 9.00,–,CN(C(=O)NC1CCOCC1)[C@@H]1CCN(c2ncnc3[nH]ccc23)C1 [Compound 36],–
7.00 to 9.00,–,CN(C(=O)N1CCCC1)[C@@H]1CCN(c2ncnc3[nH]ccc23)C1 [Compound 37],–
7.00 to 9.00,6.00 to 7.00,CN(c1ccc(Br)cn1)[C@@H]1CCN(c2ncnc3[nH]ccc23)C1 [Compound 68],–
7.00 to 9.00,7.00 to 9.00,CN(c1ccc(C(F)(F)F)cn1)[C@@H]1CCN(c2ncnc3[nH]ccc23)C1 [Compound 123],–
–,7.00 to 9.00,CN(c1ccc(C(=O)N[C@H](CO)c2ccccc2)cn1)[C@@H]1CCN(c2ncnc3[nH]ccc23)C1 [Compound 174],"pIC50 [3, 6]: 6.00 to 7.00"
–,7.00 to 9.00,C[C@H](NC(=O)c1ccc(N(C)[C@@H]2CCN(c3ncnc4[nH]ccc34)C2)c(F)c1)c1ccccc1 [Compound 182],"pIC50 [3, 6]: 7.00 to 9.00"
–,7.00 to 9.00,CN(c1ccc(C(=O)NCc2ccccc2)cc1F)[C@@H]1CCN(c2ncnc3[nH]ccc23)C1 [Compound 187],"pIC50 [3, 6]: 6.00 to 7.00"
–,7.00 to 9.00,CN(c1ccc(C(=O)NCCO)cn1)[C@@H]1CCN(c2ncnc3[nH]ccc23)C1 [Compound 190],"pIC50 [3, 6]: 6.00 to 7.00"
7.00 to 9.00,7.00 to 9.00,CN(c1ccc(C(=O)NC[C@H](O)c2ccccc2)cc1F)[C@@H]1CCN(c2ncnc3[nH]ccc23)C1 [Compound 202],–
–,7.00 to 9.00,CN(c1c(F)cc(C(=O)N[C@@H](CO)c2ccccc2)cc1F)[C@@H]1CCN(c2ncnc3[nH]ccc23)C1 [Compound 208],"pIC50 [3, 6]: 7.00 to 9.00"
7.00 to 9.00,–,CN(c1ccc(NS(=O)(=O)c2cccs2)cn1)[C@@H]1CCN(c2ncnc3[nH]ccc23)C1 [Compound 214],–
7.00 to 9.00,–,CN(c1ccc(NS(=O)(=O)c2cccnc2)cn1)[C@@H]1CCN(c2ncnc3[nH]ccc23)C1 [Compound 215],–
7.00 to 9.00,–,CN(c1ccc(S(=O)(=O)N[C@@H]2c3ccccc3C[C@H]2O)cn1)[C@@H]1CCN(c2ncnc3[nH]ccc23)C1 [Compound 233],–
7.00 to 9.00,–,COCCNS(=O)(=O)c1ccc(N(C)[C@@H]2CCN(c3ncnc4[nH]ccc34)C2)nc1 [Compound 237],–
7.00 to 9.00,–,CN(c1ccc(S(=O)(=O)NC(C)(C)C)cn1)[C@@H]1CCN(c2ncnc3[nH]ccc23)C1 [Compound 238],–
7.00 to 9.00,7.00 to 9.00,CN(c1ccc(S(=O)(=O)NC2COC2)cn1)[C@@H]1CCN(c2ncnc3[nH]ccc23)C1 [Compound 242],–
7.00 to 9.00,–,C[C@H](O)CNS(=O)(=O)c1ccc(N(C)[C@@H]2CCN(c3ncnc4[nH]ccc34)C2)nc1 [Compound 245],–
7.00 to 9.00,–,CN(c1ccc(S(=O)(=O)NC2CCC[C@@H]2O)cn1)[C@@H]1CCN(c2ncnc3[nH]ccc23)C1 (some centres unmarked) [Compound 246],–
7.00 to 9.00,6.00 to 7.00,CN(c1ccc(S(=O)(=O)N2CCOCC2)cn1)[C@@H]1CCN(c2ncnc3[nH]ccc23)C1 [Compound 252],–
7.00 to 9.00,6.00 to 7.00,CN(c1ccc(S(=O)(=O)NC2CCOCC2)cn1)[C@@H]1CCN(c2ncnc3[nH]ccc23)C1 [Compound 259],–
